Assay results as given in ChEMBL document CHEMBL3045073, “Synthesis of -amino carbonyl derivatives of coumarin and benzofuran and evaluation of their biological activity” (Med Chem Res, 2013).
In brackets after ≈: the same amount, converted by molar mass.

Legend:
Aspergillus flavus [1] = experiment: Antifungal activity against Aspergillus flavus assessed as growth inhibition at 50 mg/mL after 72 hr by agar well diffusion method; type: functional; details: read-out: IZ
Candida albicans [2] = experiment: Antifungal activity against Candida albicans MTCC227 assessed as growth inhibition after 72 hr by serial broth dilution method; details: MTCC227, 72 h
Staphylococcus aureus [3] = experiment: Antibacterial activity against Staphylococcus aureus ATCC 25923 assessed as growth inhibition at 50 mg/mL after 24 hr by agar well diffusion method; details: ATCC 25923, 24 h, read-out: IZ
Escherichia coli [4] = experiment: Antibacterial activity against Escherichia coli ATCC 25922 assessed as growth inhibition after 24 hr by serial broth dilution method; details: ATCC 25922, 24 h
[5] = test system: Radical scavenging activity; experiment: Antioxidant activity assessed as DPPH free radical scavenging activity at 100 ug/mL after 10 min UV-Vis spectrophotometric analysis relative to control; type: functional
[6] = test system: Chrysosporium keratinophilum; experiment: Antifungal activity against Chrysosporium keratinophilum assessed as growth inhibition at 50 mg/mL after 72 hr by agar well diffusion method; type: functional; details: read-out: IZ
Escherichia coli [7] = experiment: Antibacterial activity against Escherichia coli ATCC 25922 assessed as growth inhibition at 50 mg/mL after 24 hr by agar well diffusion method; details: ATCC 25922, 24 h, read-out: IZ
Pseudomonas aeruginosa [8] = experiment: Antibacterial activity against Pseudomonas aeruginosa ATCC 27853 assessed as growth inhibition at 50 mg/mL after 24 hr by agar well diffusion method; type: functional; details: ATCC 27853, 24 h, read-out: IZ
Candida albicans [9] = experiment: Antifungal activity against Candida albicans MTCC227 assessed as growth inhibition at 50 mg/mL after 72 hr by agar well diffusion method; details: MTCC227, 72 h, read-out: IZ
Aspergillus flavus [10] = experiment: Antifungal activity against Aspergillus flavus assessed as growth inhibition after 72 hr by serial broth dilution method; type: functional
[11] = test system: Chrysosporium keratinophilum; experiment: Antifungal activity against Chrysosporium keratinophilum assessed as growth inhibition after 72 hr by serial broth dilution method; type: functional
Pseudomonas aeruginosa [12] = experiment: Antibacterial activity against Pseudomonas aeruginosa ATCC 27853 assessed as growth inhibition after 24 hr by serial broth dilution method; type: functional; details: ATCC 27853, 24 h
[13] = Metal chelating activity of the compound assessed as ferrous ion complex formation at 0.5 to 2 mg/mL after 10 min by spectrophotometric analysis
Staphylococcus aureus [14] = experiment: Antibacterial activity against Staphylococcus aureus ATCC 25923 assessed as growth inhibition after 24 hr by serial broth dilution method; details: ATCC 25923, 24 h
Pseudomonas aeruginosa [15] = experiment: Antibacterial activity against Pseudomonas aeruginosa ATCC 27853 assessed as growth inhibition at 0.5 to 1 mg/mL after 24 hr by agar well diffusion method; type: functional
Escherichia coli [16] = experiment: Antibacterial activity against Escherichia coli ATCC 25922 assessed as growth inhibition at 0.5 to 1 mg/mL after 24 hr by agar well diffusion method
Staphylococcus aureus [17] = experiment: Antibacterial activity against Staphylococcus aureus ATCC 25923 assessed as growth inhibition at 0.5 to 1 mg/mL after 24 hr by agar well diffusion method

Row | SMILES | zone of inhibition at 50000 µg/mL (Aspergillus flavus [1]) | MIC (Candida albicans [2]) | zone of inhibition at 50000 µg/mL (Staphylococcus aureus [3]) | MIC (Escherichia coli [4]) | Activity [5] | zone of inhibition at 50000 µg/mL [6] | zone of inhibition at 50000 µg/mL (Escherichia coli [7]) | zone of inhibition at 50000 µg/mL (Pseudomonas aeruginosa [8]) | zone of inhibition at 50000 µg/mL (Candida albicans [9]) | MIC (Aspergillus flavus [10]) | MIC [11] | MIC (Pseudomonas aeruginosa [12]) | Activity [13] | MIC (Staphylococcus aureus [14]) | inhibition zone (IZ) (Pseudomonas aeruginosa [15]) | MIC (Pseudomonas aeruginosa [15]; Pseudomonas aeruginosa, ATCC 27853, 24 h) | inhibition zone (IZ) (Escherichia coli [16]) | MIC (Escherichia coli [16]; Escherichia coli, ATCC 25922, 24 h) | inhibition zone (IZ) (Staphylococcus aureus [17]) | MIC (Staphylococcus aureus [17]; Staphylococcus aureus, ATCC 25923, 24 h)
1 | O=C(O)c1ccc(NC(CC(=O)c2cc3ccccc3oc2=O)c2ccccc2)cc1 (centres undefined) | 11 mm | 150 mg/L (≈ 363 µM) | 11 mm | 50 mg/L (≈ 121 µM) | 64.6% | 13 mm | 10 mm | 12 mm | 17 mm | 250 mg/L (≈ 605 µM) | 200 mg/L (≈ 484 µM) | 150 mg/L (≈ 363 µM) | 64.3% | 100 mg/L (≈ 242 µM) |  |  |  |  |  | 
2 | O=C(O)c1ccc(NC(CC(=O)c2cc3ccccc3o2)c2ccccc2)cc1 (centres undefined) | 3 mm | 400 mg/L (≈ 1040 µM) | 3 mm | 500 mg/L (≈ 1300 µM) | 52.2% | 2 mm | 3 mm | 3 mm | 2 mm | 500 mg/L (≈ 1300 µM) | 500 mg/L (≈ 1300 µM) | 500 mg/L (≈ 1300 µM) | 69.6% | 450 mg/L (≈ 1170 µM) |  |  |  |  |  | 
3 | CN[C@@H]1[C@H](O[C@H]2[C@H](O[C@H]3[C@H](O)[C@@H](O)[C@H](N=C(N)N)[C@@H](O)[C@@H]3N=C(N)N)O[C@@H](C)[C@]2(O)C=O)O[C@@H](CO)[C@H](O)[C@H]1O [STREPTOMYCIN] |  |  |  |  |  |  |  |  |  |  |  |  |  |  | 13 mm | 30 mg/L (≈ 51.6 µM) | 14 mm | 30 mg/L (≈ 51.6 µM) | 12 mm | 30 mg/L (≈ 51.6 µM)
